In US7781565B2 (priority 2006, dated 2010):
Entries after “also recorded” stand apart in the source; their conditions may differ.

tested on: NCI-60 cell lines; assay type: cell-based, human

Substance | Cell Line with which the peptide (and its tripeptide motif) is associated | Cell Line (NCI-60 cell line the peptide and its motif are associated with) | Cell Line (NCI-60 cell line the peptide is associated with) | Cell Line the peptide is associated with (peptide recovered from phage library selection on this NCI-60 cell line)
SSGSVDS | H322-Lung |  |  | 
SSLLSSL |  | SK-MEL-2 Melanoma |  | 
SSRGGSS |  |  | MALME-3M Melanoma | 
SSRMGLV | SR Leukemia |  |  | 
SSRPGSS | Hop-62-Lung |  |  | 
SSSLAGS |  |  |  | UO31 Renal
SSTRGVY |  |  | HT-29 Colon | 
SSVASLV |  |  | SNB-19 CNS; also recorded: SF-539 CNS | 
STEGGGL | Molt-4-Leukemia |  |  | 
STSLGAG | H322-Lung |  |  | 
SVDRGVI |  |  | LOX-IMVI Melanoma | 
SVEGRGV | A549-Lung |  |  | 
SVGAVGG | A549-Lung |  |  | 
SVHLVSG |  |  |  | HS 578 T Breast
SVLGGRL | EKVX-Lung |  |  | 
SVLGSSL | H460-Lung |  |  | 
SVRVGSG |  | SK-MEL-28 Melanoma |  | 
SVSGAGS |  | OVCAR-5 Ovarian |  | 
SVSRGRV |  |  |  | A498 Renal
SVTGRVS |  | 786-0 Renal |  | 
SVTGSVG |  | IGROV1 Ovarian |  | 
SVVGVST |  |  | HCT-15 Colon | 
SVVLAGS |  |  | LOX-IMVI Melanoma | 
SVVRRGS |  |  |  | ACHN Renal
SVYALRS |  |  | COLO-205-Colon | 
SWAGVRF |  | OVCAR-5 Ovarian |  | 

Substance | Cell Line with which the peptide (and its tripeptide motif) is associated | Cell Line (NCI-60 cell line the peptide and its motif are associated with) | Cell Line (NCI-60 cell line the peptide is associated with) | Cell Line the peptide is associated with (peptide recovered from phage library selection on this NCI-60 cell line)
SWGSGGS | Hop-92-Lung |  |  | 
SWRPLVS | Hop-62-Lung |  |  | 
SYFRAGR | H23-Lung |  |  | 
SYGLVLP | Hop-92-Lung |  |  | 
SYMGAAS |  |  |  | SN12C Renal
SYWVGSS |  |  |  | MCF-7 Breast
TAAAVLL |  | OVCAR-5 Ovarian |  | 
TAAGSSF |  |  |  | HS 578 T Breast
TAGGAVG |  |  | SW620-Colon | 
TAGRLEV |  |  |  | RXF393 Renal
TAGSSRL | H322-Lung |  |  | 
TATGGLL |  | OVCAR-8 Ovarian |  | 
TCGGRSY |  | SK-MEL-2 Melanoma |  | 
TDGVRAF |  | UACC 257 Melanoma |  | 
TDLAGLH | RPMI-8226-Leukemia |  |  | 
TEGSVTV | HL-60-Leukemia |  |  | 
TEGTRGV |  |  |  | RXF393 Renal
TELVSWS | H322-Lung |  |  | 
TFAGLAQ |  |  |  | BT-549 Breast
TFAGRSL |  | A498 Renal |  | 
TFGKGGL | HL-60-Leukemia |  |  | 
TFRGAGV |  |  |  | MDA-MB-231 Breast
TGFGAVG | HL-60-Leukemia |  |  | 
TGGLHWY |  |  |  | TK-10 Renal
TGGSLGA | EKVX-Lung |  |  | 
TGGSLLG |  | IGROV1 Ovarian |  | 

Substance | Cell Line with which the peptide (and its tripeptide motif) is associated | Cell Line (NCI-60 cell line the peptide and its motif are associated with) | Cell Line (NCI-60 cell line the peptide is associated with) | Cell Line the peptide is associated with (peptide recovered from phage library selection on this NCI-60 cell line)
TGLLRLY |  |  |  | RXF393 Renal
TGRLSAA |  | UACC62 Melanoma |  | 
TGRSSFW |  |  |  | TK-10 Renal
TGRVVRR | CCRF-CEM Leukemia |  |  | 
TGVRNSP |  |  |  | UO31 Renal
THRNRSS | SR Leukemia |  |  | 
THVGGVR |  | OVCAR-8 Ovarian |  | 
TICLGLG |  |  |  | CAIK-1 Renal
TIPAGGG |  |  |  | MDA-MB-231 Breast
TLGGLRT |  |  | SF-295 CNS | 
TLGLRVP |  |  |  | TK-10 Renal
TLGRLSS |  | DU-145 Prostate |  | 
TLGSVRV |  | SK-MEL-5 Melanoma |  | 
TLGVLVT |  |  |  | NCI/ADR-RES Breast
TLTAAVF |  | UACC 257 Melanoma |  | 
TLVLGGS | Hop-92-Lung |  |  | 
TNRFARG |  |  |  | T-47D Breast
TQVEARG |  |  |  | HS 578 T Breast
TQYYGSS |  |  | SNB-19 CNS; also recorded: SF-539 CNS | 
TRASRRG |  |  | SNB-75 CNS | 
TRDGVRW |  |  |  | RXF393 Renal
TREGGLD |  |  | KM-12C Colon | 
TRGAVFG |  | SK-MEL-5 Melanoma |  | 
TRGDAVS |  |  | SF-295 CNS | 
TRGSGAG |  |  |  | HS 578 T Breast
TRGVIGG |  |  |  | T-47D Breast

Substance | Cell Line with which the peptide (and its tripeptide motif) is associated | Cell Line (NCI-60 cell line the peptide and its motif are associated with) | Cell Line (NCI-60 cell line the peptide is associated with) | Cell Line the peptide is associated with (peptide recovered from phage library selection on this NCI-60 cell line)
TRLGGLT |  |  | SF-295 CNS | 
TRLSFRH |  | SK-OV-3-3 Ovarian |  | 
TRRGRLD |  |  |  | SN12C Renal
TRSSLTH |  |  |  | TK-10 Renal
TRVSGSG |  |  |  | BT-549 Breast
TRYSLRS |  |  |  | TK-10 Renal
TSGAVAP |  |  |  | HS 578 T Breast
TSGRLWV |  | M14 Melanoma |  | 
TSLLSFR | CCRF-CEM Leukemia |  |  | 
TSRGLRL |  | UACC 257 Melanoma |  | 
TTGSVIV | H23-Lung |  |  | 
TTLLSRQ |  | OVCAR-5 Ovarian |  | 
TTQLRGV |  | UACC62 Melanoma |  | 
TVGSGCL |  |  | HCT-116 Colon | 
TVGSSLG |  |  |  | T-47D Breast
TWGRLGL |  |  |  | ACHN Renal
TWHAGGI |  |  |  | ACHN Renal
TWIGRVS |  |  | LOX-IMVI Melanoma | 
TWSTGGR |  |  | LOX-IMVI Melanoma | 
TYCDRAV |  |  |  | BT-549 Breast
VAASESH | Hop-62-Lung |  |  | 
VAASVRE |  | OVCAR-3 Ovarian |  | 
VAELLSM |  | OVCAR-5 Ovarian |  | 
VAGRLQM |  | OVCAR-4 Ovarian |  | 
VAGRVGI |  | MALME-3M Melanoma | MALME-3M Melanoma | 
VALGVSS |  |  |  | T-47D Breast

Substance | Cell Line with which the peptide (and its tripeptide motif) is associated | Cell Line (NCI-60 cell line the peptide and its motif are associated with) | Cell Line (NCI-60 cell line the peptide is associated with) | Cell Line the peptide is associated with (peptide recovered from phage library selection on this NCI-60 cell line)
VARAVPC | Hop-92-Lung |  |  | 
VARGQMQ | H226-Lung |  |  | 
VARSSFR |  | IGROV1 Ovarian |  | 
VAVGVRS |  |  |  | HS 578 T Breast
VAWRGVS | A549-Lung |  |  | 
VDGSGDD |  | DU-145 Prostate |  | 
VDLRSAF |  |  |  | ACHN Renal
VDVGGAG |  | 786-0 Renal |  | 
VEEGRLR |  |  | SW620-Colon | 
VEYAAGR | CCRF-CEM Leukemia |  |  | 
VFQRSSG | A549-Lung |  |  | 
VGAGRFT |  |  |  | MDA-MB-231 Breast
VGAVYFL | H322-Lung |  |  | 
VGIGAGG |  |  |  | T-47D Breast
VGLGHWP | Hop-62-Lung |  |  | 
VGLGNSA |  | SK-MEL-2 Melanoma |  | 
VGLRCSV |  |  |  | BT-549 Breast
VGLRDWG |  |  | SW620-Colon | 
VGLRVRF |  |  |  | BT-549 Breast
VGPSVHL |  | 786-0 Renal |  | 
VGRAGGL |  |  |  | MDA-MB-231 Breast
VGRGRLH | EKVX-Lung |  |  | 
VGRLAKG | Hop-62-Lung |  |  | 
VGRLQTT |  | UACC62 Melanoma |  | 
VGSSHGL |  | SK-MEL-28 Melanoma |  | 
